What is called IC50 is the midpoint of a concentration-inhibition curve.

Consider nine molecules from patent EP4748842A1, “CAMPTOTHECIN COMPOUND, ANTIBODY DRUG CONJUGATE, AND PREPARATION METHOD THEREFOR AND USE THEREOF” (Shanghai Pharmaceuticals Holding Co., Ltd., priority 2023, dated 2025).

Holding throughout (experiment): CTG assay, effect on proliferation ability of tumor cells
Type in all cases: cell-based, human

The subject of one assay is NCI-N87. The note with it: NCI-N87, 168 h, read-out: IC50 (nM) NCI-N87. On the procedure: (§1) Test method for the effect of camptothecin on the proliferation ability of tumor cells: The effect of camptothecin derivatives K1, K2, K3, K4, K5, K6, K7, K8, and K9 on the proliferation ability of tumor cells was tested using the CTG assay. Test cells (see Table 1) were digested, resuspended, and counted. The supernatant was removed by centrifugation, and the cell density was adjusted. Cell counting was performed with a cell counter: 20 µl of the cell suspension was aspirated, mixed with 20 µl of trypan blue, and 20 µl of the mixture was taken for cell counting. Cells were seeded into 96-well cell culture plates respectively, with 180 µl added to each well, and 1000 cells were plated per well. The plate was tapped gently to mix, and then placed in a 37°C cell incubator for incubation for 16 hours. Compounds were diluted with McCoy's 5A medium, and 20 µl was added to each well to achieve a maximum concentration of 100 nM, followed by 3-fold serial dilution with 10 concentration points. DMSO was used as the vehicle control, and 20 µl of McCoy's 5A medium was added to the blank control. The plate was tapped gently to mix, and then placed in a 37°C cell incubator for incubation for 7 days. After 7 days of incubation, the cell plate was taken out of the incubator, the culture medium was aspirated, 20 µl of culture medium was added to each well, and then 20 µl of CTG was added to each well. The plate was shaken on a shaker for 5 min and incubated at room temperature for 10 min. Then, 30 µl of the reaction solution was transferred to a Viewplate-96 white microplate (transparent bottom), and data analysis was performed on an EnVision microplate reader. [formula] Table 1. Overview of cell lines used in this screening

For another assay, the system named is Calu-3. The note with it: Calu-3, 168 h, read-out: IC50 (nM) Calu-3. The protocol: as §1
In a further assay the test system is HCT-116. The note with it: HCT-116, 168 h, read-out: IC50 (nM) HCT-116. On the procedure: as §1
The mark [1] stands for this setting: human gastric cancer cells, 7 days incubation, CTG.
Setting [2] is: human lung adenocarcinoma cells, 7 days incubation, CTG.
The mark [3] stands for this setting: human colon cancer cells, 7 days incubation, CTG.

Like-named read-outs stand apart in the source and are kept apart here.

With `CC[C@@]1(O)C(=O)OCc2c1cc1n(c2=O)Cc2c-1nc1cc(F)c(C)cc1c2-c1cnn(CCO)c1` [Compound K4], the IC50 came out at 1.72 nM in the assay on NCI-N87 (Homo sapiens), 0.15 nM with Calu-3 (Homo sapiens) and 0.42 nM in the assay with HCT-116 (Homo sapiens).

For the molecule `CC[C@@]1(O)C(=O)OCc2c1cc1n(c2=O)Cc2c-1nc1cc(F)c(C)cc1c2-c1ccn(CCCCO)n1` [Compound K9], the IC50 is 7.82 nM in the assay on NCI-N87 (setting [1]), 1.89 nM in the assay with Calu-3 (setting [2]) and 3.87 nM in the assay on HCT-116 (setting [3]).

`CC[C@@]1(O)C(=O)OCc2c1cc1n(c2=O)Cc2c-1nc1cc(F)c(C)cc1c2-c1cn(CCO)nn1` [Compound K1]: the IC50 is 1.89 nM in the assay on NCI-N87 (Homo sapiens), 0.22 nM with Calu-3 (Homo sapiens) and 0.77 nM in the assay on HCT-116 (Homo sapiens).

`CC[C@@]1(O)C(=O)OCc2c1cc1n(c2=O)Cc2c-1nc1cc(F)c(C)cc1c2-c1cn(CCCO)nn1` [Compound K2]: the results for the IC50 in the assay with NCI-N87 (setting [1]), with Calu-3 (setting [2]) and in the assay on HCT-116 (setting [3]) were 2.21 nM, 0.29 nM and 0.89 nM, respectively.

For the molecule `CC[C@@]1(O)C(=O)OCc2c1cc1n(c2=O)Cc2c-1nc1cc(F)c(C)cc1c2-c1cnn(CCCCO)c1` [Compound K6], the IC50 came to 2.88 nM in the assay with NCI-N87 (setting [1]), 0.28 nM with Calu-3 (setting [2]) and 0.78 nM in the assay with HCT-116 (setting [3]).

With `CC[C@@]1(O)C(=O)OCc2c1cc1n(c2=O)Cc2c-1nc1cc(F)c(C)cc1c2-c1ccn(CCO)n1` [Compound K7], the IC50 is 5.34 nM in the assay with NCI-N87 (setting [1]), 1.13 nM in the assay on Calu-3 (setting [2]) and 2.24 nM in the assay with HCT-116 (setting [3]).

Regarding `CC[C@@]1(O)C(=O)OCc2c1cc1n(c2=O)Cc2c-1nc1cc(F)c(C)cc1c2-c1cnn(CCCO)c1` [Compound K5], the IC50 came to 2.07 nM in the assay on NCI-N87 (setting [1]), 0.18 nM with Calu-3 (setting [2]) and 0.35 nM in the assay on HCT-116 (setting [3]).

Turning to `CC[C@@]1(O)C(=O)OCc2c1cc1n(c2=O)Cc2c-1nc1cc(F)c(C)cc1c2-c1cn(CCCCO)nn1` [Compound K3], the IC50 was 3.11 nM in the assay with NCI-N87 (setting [1]), 0.43 nM with Calu-3 (setting [2]) and 1.36 nM in the assay on HCT-116 (setting [3]).

As for `CC[C@@]1(O)C(=O)OCc2c1cc1n(c2=O)Cc2c-1nc1cc(F)c(C)cc1c2-c1ccn(CCCO)n1` [Compound K8], the values for the IC50 with NCI-N87 (setting [1]), in the assay on Calu-3 (setting [2]) and in the assay on HCT-116 (setting [3]) were 6.76 nM, 1.24 nM and 3.21 nM, respectively.
